What was measured:
HEp-2 cells [1] = assay: Competitive inhibition of HEp-2 cell attachment to (SPKR)4inv coated wells; type: cell-based, human; details: wells coated with (SPKR)4inv
Protocol: (§1) Cells were harvested with trypsin-EDTA and resuspended in medium containing soybean trypsin inhibitor. After centrifugation, the cell pellet was resuspended in medium containing 20 mM HEPES pH 7.5, 4 g/l BSA. For inhibition studies, 3×10^4 cells were incubated with increasing concentrations of SPKR4-inv protein for 30 min at 22° C.

HEp-2 cells [2] = assay: Competitive inhibition of HEp-2 cell attachment to fibronectin coated wells; type: cell-based, human
Protocol: as §1

Substance: A3β1: Recombinant soluble α3β1 integrin (Eble, 1998)
- ID30 (concentration of competitor that results in 30% inhibition of cell attachment) (HEp-2 cells [1]): 0.050 µM

Substance: RGDS
- ID30 compared with (SPKR)4inv (HEp-2 cells [2]; fibronectin coated wells): three orders of magnitude higher
- ID30 (concentration of competitor that results in 30% inhibition of cell attachment) (HEp-2 cells [2]; wells coated with fibronectin): 170 µM
- ID30 (concentration of competitor that results in 30% inhibition of cell attachment) (HEp-2 cells [1]): 170 µM

Source: US20040019188A1, “Targeting through integrins” (priority 2000, published 2004)
